Measured values reported in article PMC6968640, “Development of potent reversible selective inhibitors of butyrylcholinesterase as fluorescent probes” (Journal of Enzyme Inhibition and Medicinal Chemistry, 2020).
“And” between values parts separate entries of the source, which are not always exact repeats. Identical values can stand only once. “Also recorded” adds a separate entry of the source. Like-named read-outs stand apart in the source and are kept apart here.

Tests used:
mAChE = mAChE (Mus musculus, UniProt P21836); assay: Inhibition of mAChE, method of Ellman; type: biochemical; details: compound at 100 µM; read-out: mAChE residual activity (RA)
Chain of mAChE (P21836 32-614): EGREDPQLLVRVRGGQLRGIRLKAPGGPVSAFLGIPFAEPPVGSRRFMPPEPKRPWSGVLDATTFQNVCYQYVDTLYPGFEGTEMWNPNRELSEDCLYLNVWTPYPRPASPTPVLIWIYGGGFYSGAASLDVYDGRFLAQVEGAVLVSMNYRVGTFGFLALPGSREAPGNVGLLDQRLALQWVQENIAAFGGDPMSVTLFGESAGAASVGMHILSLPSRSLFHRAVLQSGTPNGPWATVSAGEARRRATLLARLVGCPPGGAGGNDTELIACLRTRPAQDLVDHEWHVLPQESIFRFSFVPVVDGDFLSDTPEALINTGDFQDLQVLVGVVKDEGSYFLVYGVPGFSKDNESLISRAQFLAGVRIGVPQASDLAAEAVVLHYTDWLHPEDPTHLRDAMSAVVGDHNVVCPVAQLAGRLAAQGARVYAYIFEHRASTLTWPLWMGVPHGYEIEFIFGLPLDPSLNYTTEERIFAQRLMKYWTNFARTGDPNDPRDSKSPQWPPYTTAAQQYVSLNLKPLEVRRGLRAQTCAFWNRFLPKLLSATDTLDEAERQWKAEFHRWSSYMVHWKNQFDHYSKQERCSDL
Procedure: (§1) The inhibitory potencies of these probes against cholinesterases (i.e. huAChE, murine AChE [mAChE] and huBChE) were determined using the method of Ellman[18], as previously described. The assays were carried out at room temperature in 100 mM phosphate buffer, pH 8.0, containing 333 µM Ellman reagent (5,5′-dithiobis(2-nitrobenzoic acid); DTNB), 500 µM substrate (huAChE/mAChE: acetylthiocholine; huBChE: butyrylthiocholine iodide [BSCh]) and huAChE/mAChE or huBChE (50 pM, 1 nM, respectively). […] Formation of the yellow product was followed for 1 min as the change in the absorbance at 412 nm, using a microplate reader (Synerg H4; BioTek Instruments, Inc., USA). For screening for inhibitory activities, the compounds were assayed at 100 µM, in triplicate. The initial velocities in the absence (v0) and presence (vi) of the test compounds were calculated. […].
(§2) For the IC50 measurements, serial dilutions were prepared for the compounds with RAs <50% at 100 µM. The IC50 values were calculated by plotting the RAs against the compound concentration according to a four-parameter logistic function, using the GraphPad Prism 8 software (GraphPad Software, USA). All of the measurements were repeated twice, each of which was in triplicate.

huAChE = huAChE (Homo sapiens, UniProt P22303); assay: Inhibition of huAChE, method of Ellman; type: biochemical; details: compound at 100 µM; read-out: huAChE residual activity (RA)
Chain of huAChE (P22303 32-614): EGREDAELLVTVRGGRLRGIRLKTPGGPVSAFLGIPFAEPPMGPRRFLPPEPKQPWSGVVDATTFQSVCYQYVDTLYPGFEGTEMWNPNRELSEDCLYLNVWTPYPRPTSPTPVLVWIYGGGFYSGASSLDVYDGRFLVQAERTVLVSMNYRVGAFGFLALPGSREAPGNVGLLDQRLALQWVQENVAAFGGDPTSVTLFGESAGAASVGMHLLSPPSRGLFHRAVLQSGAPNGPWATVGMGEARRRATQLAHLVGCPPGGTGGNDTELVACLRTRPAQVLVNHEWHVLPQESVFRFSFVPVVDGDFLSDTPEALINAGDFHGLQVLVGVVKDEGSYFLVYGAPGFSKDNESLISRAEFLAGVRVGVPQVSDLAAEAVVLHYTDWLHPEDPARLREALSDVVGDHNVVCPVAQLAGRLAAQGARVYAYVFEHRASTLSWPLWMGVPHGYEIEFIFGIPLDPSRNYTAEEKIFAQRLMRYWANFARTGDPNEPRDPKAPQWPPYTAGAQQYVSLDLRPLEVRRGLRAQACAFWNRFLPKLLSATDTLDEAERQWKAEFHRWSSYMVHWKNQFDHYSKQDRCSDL
Procedure: as §1, §2

hBChE [1] = target: T1, hBChE (Homo sapiens, UniProt P06276); assay: Inhibition of huBChE, method of Ellman; type: biochemical; details: for IC50: 500 µM butyrylthiocholine iodide, 1 nM enzyme, pH 8.0, room temperature; for remaining activity at 100 µM: compound at 100 µM, read-out: huBChE residual activity (RA)
T1 sequence (P06276 29-602): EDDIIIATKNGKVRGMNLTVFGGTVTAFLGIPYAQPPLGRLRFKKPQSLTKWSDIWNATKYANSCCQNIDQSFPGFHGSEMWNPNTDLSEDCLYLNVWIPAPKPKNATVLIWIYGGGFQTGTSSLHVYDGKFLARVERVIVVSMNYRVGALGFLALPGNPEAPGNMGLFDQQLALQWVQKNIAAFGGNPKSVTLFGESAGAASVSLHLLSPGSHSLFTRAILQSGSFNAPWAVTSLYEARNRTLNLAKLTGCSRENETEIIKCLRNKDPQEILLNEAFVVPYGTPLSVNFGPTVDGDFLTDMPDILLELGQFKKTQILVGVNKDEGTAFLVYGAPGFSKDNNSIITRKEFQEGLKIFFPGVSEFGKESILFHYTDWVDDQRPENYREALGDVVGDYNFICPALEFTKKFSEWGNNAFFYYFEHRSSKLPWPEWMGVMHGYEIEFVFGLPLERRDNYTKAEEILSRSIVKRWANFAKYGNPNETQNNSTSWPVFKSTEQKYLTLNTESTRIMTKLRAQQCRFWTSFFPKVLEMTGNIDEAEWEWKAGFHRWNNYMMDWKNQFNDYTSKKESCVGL
Procedure: as §1, §2

purified huBChE = target: T2, purified huBChE (Homo sapiens, UniProt P06276); assay: Kinetic studies: progress curves of BSCh hydrolysis by purified huBChE; type: biochemical; details: 25 °C, 25 mM phosphate buffer pH 7.0, about 50 µM BSCh
T2 construct: gift from Drs; O. Lockridge and L. Schopfer
T2 sequence (P06276 29-602): as above
Procedure: Purified huBChE was a generous gift from Drs. O. Lockridge and L. Schopfer. DTNB and BSCh were from Sigma. All other reagents used were of analytical grade. The experiments were carried out at 25 °C in 25 mM phosphate buffer, pH 7.0.
Three compounds (2C, 3A, 3B) were tested by measuring the progress curves for BSCh hydrolysis by huBChE in the absence and presence of each of these compounds at five to seven concentrations. Assays were carried out over 10 min, in a 0.6-ml cuvette, using the method of Ellman et al[18]. The compound concentrations used were: 2C, 0–1 µM; 3A, 0–200 µM; and 3B, 0–50 nM.
The concentration of purified huBChE, which was always the final addition to these assays, was ∼0.5 nM. The hydrolysis of 50 µM BSCh was followed until completion (in most cases), in the presence of 1 mM DTNB. Reaching the plateau was important to get a precise estimate of the actual added BSCh concentration. For the calculation, the molar absorption coefficient of […] was used. All of the measurements were performed using a conventional UV/Vis spectrophotometer (Lambda45; Perkin-Elmer). Due to the experimental manipulation, a dead time of 10 s was added to each measurement, and all progress curves were extrapolated accordingly prior to the analysis.
. This programme is designed to generate differential equations from drawn reaction schemes and subsequently to fit the coefficients of these equations according to least squares methodology to reproduce the experimental data using a numerical integration algorithm. For determination of the kinetics mechanisms and parameters, the van Slyke-Cullen single intermediate reaction scheme[23] for substrate hydrolysis by huBChE was combined with a reversible mixed inhibition mechanism (Figure 1). […]
Figure 1. Reaction scheme for the inhibition of BSCh hydrolysis by purified huBChE in the presence of DTNB by compounds 2C, 3A, and 3B. E, free enzyme; EA, acylated intermediate; S, substrate BSCh; P, all of the stoichiometrically released products (SCh-TNB, TNB^–); and I, compounds (inhibitors) 2C, 3A, and 3B. The symbols for the constants are: kcat (k1), catalytic constant for BSCh turnover; Km (k0), Michaelis constant; Kp = k3/k2, inhibition constant for binding of the product thiocholine-TNB; K1 = k5/k4 and K2 = k7/k6, dissociation constants for binding of the compounds to the free and acylated enzyme, respectively.

[2] = Solubility in aqueous buffers; type: physicochemical
BChE in rat brain slices = target: T3, BChE in rat brain slices (Rattus norvegicus, UniProt Q9JKC1); details: rat brain cryosections, AChE blocked with 0.1 mM BW-284C51
T3 construct: coronal cryosections (10 μm) of a rat brain; from tissue; host or cells: rat brain coronal cryosections at the level of the thalamus
T3 sequence (Q9JKC1 24-597): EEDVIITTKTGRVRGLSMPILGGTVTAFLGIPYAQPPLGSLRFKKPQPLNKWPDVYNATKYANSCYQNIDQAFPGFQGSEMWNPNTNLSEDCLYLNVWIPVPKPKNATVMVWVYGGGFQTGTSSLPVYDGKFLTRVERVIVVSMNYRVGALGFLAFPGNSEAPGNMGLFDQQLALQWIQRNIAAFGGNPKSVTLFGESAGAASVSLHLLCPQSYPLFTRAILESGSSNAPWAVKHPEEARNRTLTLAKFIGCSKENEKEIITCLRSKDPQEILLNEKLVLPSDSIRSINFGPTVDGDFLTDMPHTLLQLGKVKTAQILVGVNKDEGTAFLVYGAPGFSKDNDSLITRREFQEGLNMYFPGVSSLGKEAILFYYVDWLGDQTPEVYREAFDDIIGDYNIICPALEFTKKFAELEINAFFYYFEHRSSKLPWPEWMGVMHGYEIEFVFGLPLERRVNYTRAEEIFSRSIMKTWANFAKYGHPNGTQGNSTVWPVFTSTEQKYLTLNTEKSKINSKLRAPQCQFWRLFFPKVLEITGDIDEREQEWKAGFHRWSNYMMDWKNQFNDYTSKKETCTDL
Procedure: Sections of rat brain with the highest BChE activity were selected and the modified Koelle − Karnovsky histochemical method was used to detect BChE activity[16]^,[40–42].
Histochemical staining for BChE activity of coronal cryosections (10 μm) of a rat brain from two regions (top/bottom row) at the level of the thalamus. All sections were processed with 0.1 mM BW-284C51 in Koelle solution, to completely block AChE activity. […] The relative optical density (ROD) pseudocolor scale for staining intensity of BChE activity is on the right.
BChE activity histochemical staining of coronal cryosections (10 μm) of a rat brain from
two regions at the level of the thalamus. All sections were processed with 0.1 mM BW-284C51 in
Koelle solution to completely block the AChE activity (A, B). For the inhibition experiment, the
relative optical density (ROD) pseudocolor scale for the staining intensity of BChE activity is shown
on the right. The photomicrographs show BChE -rich neurons in the laterodorsal thalamic nucleus

hBChE [3] = target: T1, hBChE; assay: Fluorescence emission of probes on binding to huBChE; details: probe 1 μM, huBChE 500 nM, buffer
Source text: The fluorescence properties of probes 2C and 3B were then examined when they were bound to huBChE. […] This mirrored the differences in the emission of probe 2C between the buffer solution and the organic solvents (Figure 6(B)). […]. Most probably this is due to unspecific binding to protein surface and titration study (see Supplemental material) confirms this. Future development of probe 2C should thus be orientated towards lowering the lipophilicity, which should, in turn, reduce unspecific binding.
Figure 7. […]

hBChE [4] = target: T1, hBChE; assay: Fluorescence titration of hBChE with probe 2C; details: in duplicate, fitted to sum of hyperbolic and linear equation; read-out: binding constant from fluorescence titration
Procedure: 4. Titration of hBChE with probe 2C
Figure S2. The fluorescence titration data, in duplicate, were simultaneously fitted to the sum of hyperbolic and linear equation. The determined binding constant for probe 2C was 5.5 +/- 1.6 nM, remarkably similar to the inhibition constant for the binding to the free enzyme (3.3 nM, see Table 1 in […]
(1 picture or pasted object on this page, not shown here)

[5] = read-out: K1, dissociation constant for binding to the free enzyme
[6] = read-out: K2, dissociation constant for binding to the acylated enzyme

Row | SMILES | remaining activity at 100 µM (mAChE) [%] | remaining activity at 100 µM (huAChE) [%] | huBChE inhibition (in words) (hBChE [1]) | IC50 (hBChE [1]) [nM] | Ki (purified huBChE; [5]) | Ki (purified huBChE; [6]) [nM] | solubility in aqueous buffers (in words) [2] | concentration needed to achieve substantial inhibition of BChE (BChE in rat brain slices) [mM] | enhancement of fluorescence intensity on addition of huBChE (hBChE [3]) | remaining activity at 100 µM (hBChE [1]) [%] | Kd (hBChE [4]) [nM]
1 | CCN(CC)c1ccc2cc(C(=O)N(CCOC)CC3CCCN(Cc4ccccc4)C3)c(=O)oc2c1 (stereo not drawn) [1A] | 92 | 89 | – | – | – | – | – | – | – | – | –
2 | [N-]=[N+]=NCCOCCN(CC1CCCN(Cc2ccccc2)C1)S(=O)(=O)c1ccc2ccccc2c1 (stereo not drawn) [3C] | 94 | 84 | retained good inhibitory activity | 19 | – | – | – | – | – | – | –
3 | CCN(CC)c1ccc2cc(C(=O)NCCOCCOCCN(CC3CCCN(Cc4ccccc4)C3)S(=O)(=O)c3ccc4ccccc4c3)c(=O)oc2c1 (stereo not drawn) [3A] | 93 | 94 | – | 60 | 63 ± 0.5 nM | 296 ± 2 | poor solubility in aqueous buffers; also recorded: low solubility | – | – | – | –
4 | O=[N+]([O-])c1ccc(N2CCN(CCN(CC3CCCN(Cc4ccccc4)C3)S(=O)(=O)c3ccc4ccccc4c3)CC2)c2nonc12 (stereo not drawn) [3B] | 97 | 57 | – | 18 | 4.63 ± 0.02 nM | 96.6 ± 2 | improved solubility in aqueous solutions compared to 3A; also recorded: sufficient aqueous solubility | 1 | only marginally increased | – | –
5 | CN(C)CCNC(=O)c1cc2ccc(N(C)C)cc2oc1=O [2A] | – | 18 | very low and unselective inhibition of BChE | – | – | – | – | – | – | 57 | –
6 | O=[N+]([O-])c1ccc(N2CCN(Cc3cn(CCOCCN(CC4CCCN(Cc5ccccc5)C4)S(=O)(=O)c4ccc5ccccc5c4)nn3)CC2)c2nonc12 (stereo not drawn) [3D] | 100 | 98 | substantial loss of inhibitory activity | 214 | – | – | – | – | – | – | –
7 | CCN(CC)c1ccc2cc(-c3nc(CN4CCCC(CN(CCN(C)C)C(=O)c5ccc6ccccc6c5)C4)cs3)c(=O)oc2c1 (stereo not drawn) [2C] | 70 | > 74 | – | 88 | 3.3 nM and 3.27 nM | 42.7 ± 1.5 | sufficient aqueous solubility | 1 | approximately two-fold | – | 5.5 ± 1.6
8 | CN(C)c1ccc2cc(C(=O)NCC[N+](C)(C)C)c(=O)oc2c1 [2B] | – | 25 | very low and unselective inhibition of BChE | – | – | – | – | – | – | 54 | –
